The values below are quoted from earlier work in patent US20190209686A1, “PULSE PHOTODYNAMIC TREATMENT OF ACNE” (GALDERMA RESEARCH & DEVELOPMENT, priority 2013, published 2019).

In series [1] the test system is acne. The settings on record: 20%, 3 hours, 150 J/cm2 broad band light.
In series [2] the test system is acne. The settings on record: cream 16% wt., 3 hours, non-coherent red light.

The structures appear in SMILES notation. Read-outs that look alike come from different tables or passages of the source.

On to `NCC(=O)CCC(=O)O` [ALA acid, 5-amino-4-oxo-pentanoic acid], for which, in the series on acne [1], the “efficacy of PDT in acne” value is “effective for the treatment of acne”; the “side effects after PDT” value is “erythema, hyperpigmentation and exfoliation were often seen after PDT treatment”.
On to `COC(=O)CCC(=O)CN` [methyl ALA ester, 5-ALA methyl ester], for which the “side effects of PDT reported by subjects” value in the series with acne [2] is “caused pain and induced severe inflammation”. Besides, the “efficacy of PDT in acne” value in the series on acne [2] (repeated 2 weeks later) was “effective in the treatment of acne”.
